The text below walks through data of US20240174690A1, “ANNULATED 2-AMINO-3-CYANO THIOPHENES AND DERIVATIVES FOR THE TREATMENT OF CANCER” (BOEHRINGER INGELHEIM INTERNATIONAL GMBH, priority 2021, published 2024).

In experiment [1] the target is KRAS (G13D)::SOS1 (Homo sapiens (Human), UniProt P01116, C118S/G13D). Nature of the experiment: KRAS::SOS1 AlphaScreen binding assay, KRAS G13D. The source says:
(§1) This assay can be used to examine the potency with which compounds according to the invention binding to (mutated) KRAS inhibit the protein-protein interaction between SOS1 and (mutated) KRAS e.g., KRAS WT, KRAS G12C, KRAS G12D, KRAS G12V, KRAS G13D. […] Low IC50 values in this assay setting are indicative of strong inhibition of protein-protein interaction between SOS1 and KRAS:
(§2) These assays measure the inhibitory effect of compounds on KRAS mutant protein-protein interactions using the Alpha Screen technology by Perkin Elmer.
(§3) The following (mutant) enzyme forms of KRAS and interacting proteins are used in these assays at the given concentrations: • KRAS (G12D) 1-169, N-terminal 6His-tag, C-terminal avi-tag (Xtal BioStructures, Inc.); final assay concentration 10 nM and SOS1 564-1049, N-terminal 229 GST-tag, TEV cleavage site (Viva Biotech Ltd); final assay concentration 5 nM; • KRAS (G12C) 1-169, N-terminal 6His-tag for purification, cleaved off, C-terminal avi-tag, biotinylated, mutations: C51S, C80L, C118S (in house); final assay concentration 7.5 nM and SOS1 564-1049, N-terminal 229 GST-tag, TEV cleavage site (Viva Biotech Ltd); final assay concentration 5 nM; • KRAS (G12V) 1-169, N-terminal 6His-tag for purification, cleaved off, C-terminal avi-tag, biotinylated, TEV cleavage site, mutation: C118S, GDP loaded (in house); final assay concentration 10 nM and SOS1 564-1049, N-terminal 229 GST-tag, TEV cleavage site (Viva Biotech Ltd); final assay concentration 10 nM; • KRAS (G13D) 1-169, N-terminal 6His-tag for purification, cleaved off, C-terminal avi-tag, biotinylated, TEV cleavage site, mutation: C118S, GDP loaded (in house); final assay concentration 10 nM and SOS1 564-1049, N-terminal 229 GST-tag, TEV cleavage site (Viva Biotech Ltd); final assay concentration 10 nM; • KRAS (WT) 1-169, N-terminal 6His-tag for purification, cleaved off, C-terminal avi-tag, biotinylated, TEV cleavage site, mutation: C118S, GDP loaded (in house); final assay concentration 10 nM and SOS1 564-1049, N-terminal 229 GST-tag, TEV cleavage site (Viva Biotech Ltd); final assay concentration 10 nM.
(§4) Test compounds dissolved in DMSO are dispensed onto assay plates (Proxiplate 384 PLUS, white, PerkinElmer; 6008289) using an Access Labcyte Workstation with the Labcyte Echo 55×. For the chosen highest assay concentration of 100 μM, 150 nL of compound solution are transferred from a 10 mM DMSO compound stock solution. A series of eleven fivefold dilutions per compound are transferred to the assay plate, compound dilutions are tested in duplicates. DMSO are added as backfill to a total volume of 150 nL.
(§5) The assays run on a fully automated robotic system in a darkened room below 100 Lux. To 150 nl of compound dilution 10 μl of a mix including KRAS mutant protein, SOS1 (final assay concentrations see above) and GDP nucleotide (Sigma G7127; final assay concentration 10 μM) in assay buffer (1×PBS, 0.1% BSA, 0.05% Tween 20) are added into columns 1-24.
(§6) After 30 minutes incubation time 5 μl of Alpha Screen bead mix in assay buffer are added into columns 1-23. Bead mix consists of AlphaLISA Glutathione Acceptor Beads (PerkinElmer, Cat No AL109) and AlphaScreen Streptavidin Donor Beads (PerkinElmer Cat No 6760002) in assay buffer at a final assay concentration of 10 μg/ml each.
(§7) Plates are kept at room temperature in a darkened incubator. After an additional 60 minutes incubation time the signal is measured in a PerkinElmer Envision HTS Multilabel Reader using the AlphaScreen specs from PerkinElmer.
(§8) Each plate contains up to 16 wells of a negative control depending on the dilution procedure (platewise or serial) (DMSO instead of test compound; with KRAS mutant::SOS1 GDP mix and bead mix; column 23) and 16 wells of a positive control (DMSO instead of test compound; with KRAS mutant::SOS1 GDP mix w/o bead mix; column 24).
(§9) As internal control known inhibitors of KRAS mutant::SOS1 interaction can be measured on each compound plate. […]
A general note: Alpha assays give light when donor and acceptor beads are brought close together.

For experiment [2], the system named is GP2D cells. Nature of the experiment: GP2D proliferation assay (120 h) (colorectal cancer, G12D). In kind it is cell-based. As to the method:
GP2D Proliferation Assay (120 h) (Colorectal Cancer, G12D)
GP2D cells (ATCC No. CRL-5807) are dispensed into white 384-well plates, flat and white bottom (Perkin Elmer, 6007680) at a density of 500 cells per well in 40 μl DMEM (Sigma, D6429)+1×GlutaMAX (Gibco, 35050038)+10% FCS (fetal calf serum). […] Compounds (10 mM stock in DMSO) are added at logarithmic dose series using the HP Digital Dispenser D300 (Tecan), including DMSO controls and normalizing for added DMSO. For the TO time point measurement, untreated cells are analyzed at the time of compound addition. Plates are incubated for 120 h, and cell viability is measured using CellTiter-Glo luminescent cell viability reagent (Promega product code G7570). Viability (stated as percent of control) is defined as relative luminescence units RLU of each well divided by the RLU of cells in DMSO controls. IC50 values are determined from viability measurements by non-linear regression using a four parameter model.

The subject of experiment [3] is A375 cells. Nature of the experiment: A375 CTG proliferation assay (120 h) (melanoma, wt, B-Raf mutant, negative control). The experiment is classed as cell-based. Particulars: Homo sapiens, A-375, CTG 120 h. The method, then:
A375 CTG Proliferation Assay (120 h) (Melanoma, Wt, B-Raf Mutant, Negative Control)
A375 cells (ATCC CRL-1619) are dispensed into 384-well plates, flat and clear bottom (Greiner, PNr. 781091) at a density of 300 cells per well in 60 μL DMEM (Sigma 06429)+10% Fetal Calf Serum (HyClone, PNr.: SH30084.03) and incubated at 37° C. in a CO2 incubator overnight. The next day, compounds (10 mM stock in DMSO) are added at logarithmic dose series using the HP Digital Dispenser D300 (Tecan), including DMSO controls. Plates are incubated for 120 h, and cell viability is measured using CellTiter-Glo luminescent cell viability reagent (Promega product code G7570). Viability (stated as percent of control) is defined as relative luminescence units RLU of each well divided by the RLU of cells in DMSO controls. IC50 values are determined from viability measurements by non-linear regression using a four-parameter model.

The target in experiment [4] is KRAS (G12V)::SOS1 (Homo sapiens (Human), UniProt P01116, C118S/G12V). Nature of the experiment: KRAS::SOS1 AlphaScreen binding assay, KRAS G12V.
Chain of KRAS (G12V)::SOS1 (P01116 other isoform, or with tags, fused parts or gaps G12V/C118S): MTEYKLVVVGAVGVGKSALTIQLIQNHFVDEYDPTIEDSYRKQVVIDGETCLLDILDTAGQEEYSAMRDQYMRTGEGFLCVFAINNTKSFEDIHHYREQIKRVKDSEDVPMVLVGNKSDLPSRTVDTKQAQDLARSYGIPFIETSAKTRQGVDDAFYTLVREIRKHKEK
Source text: as §1, §2, §3, §4, §5, §6, §7, §8, §9

Chain of KRAS (G13D)::SOS1 (P01116 other isoform, or with tags, fused parts or gaps G13D/C118S): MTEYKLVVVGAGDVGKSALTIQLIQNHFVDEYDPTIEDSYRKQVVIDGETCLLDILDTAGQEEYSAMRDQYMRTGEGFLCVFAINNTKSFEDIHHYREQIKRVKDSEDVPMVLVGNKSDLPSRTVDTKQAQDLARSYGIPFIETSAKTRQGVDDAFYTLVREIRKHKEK

With `C[C@H](Oc1cc(N2CCOC3(COC3)C2)nc(-c2noc3c2CCC[C@@]32CCCc3sc(N)c(C#N)c32)n1)[C@@H]1CCCN1C` [II-77], the IC50 (commonly the concentration at which inhibition is half-maximal) in experiment [1] was 8 nM; in experiment [2], 37 nM; in experiment [3], above 3000 nM.

For the molecule `C[C@H](Oc1cc(N2CCN(C)C2=O)nc(-c2noc3c2CCC[C@@]32CCCc3sc(N)c(C#N)c32)n1)[C@@H]1CCCN1C` [II-75], the half-maximal inhibitory concentration (IC50) in experiment [2] worked out at 111 nM; in experiment [3], 2540 nM.

Turning to `CO[C@@H]1C[C@@H]([C@H](C)Oc2cc(-c3ccn(C)n3)nc(-c3noc4c3CCC[C@@]43CCCc4sc(N)c(C#N)c43)n2)N(C)C1` [II-91], the values for the half-maximal inhibitory concentration (IC50) in experiment [2] and in experiment [3] were 394 nM and 1140 nM, respectively.

Consider `C[C@H](Oc1cc(N2CCNC2=O)nc(-c2noc3c2CCC[C@@]32CCCc3sc(N)c(C#N)c32)n1)[C@@H]1CCCN1C` [II-64], for which the IC50 is 22 nM in experiment [2] and 2580 nM in experiment [3].

As for `C[C@H](Oc1cc([C@@H]2CCOC2)nc(-c2noc3c2CCC[C@@]32CCCc3sc(N)c(C#N)c32)n1)[C@@H]1CCCN1C` [II-94], the IC50 in experiment [1] was 9 nM; in experiment [2] it was 26 nM; in experiment [3] it was above 3000 nM; in experiment [4], 2 nM.

`C[C@H](Oc1cc(-n2cc(-c3cccnc3)nn2)nc(-c2noc3c2CCC[C@@]32CCCc3sc(N)c(C#N)c32)n1)[C@@H]1CCCN1C` [II-123] showed an IC50 in experiment [3] of 259 nM.
